Where two headings read alike, the source gives them in different places. Where a SMILES comes first, the peptide text is derived from it. [ ]: non-standard residue; d: D form. Aib = CC(C)(N)C(=O)O
Key:
[1] = biological target: human GLP-1 receptor (Homo sapiens, UniProt P43220); assay: Functional GLP-1 receptor assay, in vitro potency (CRE luciferase; whole cells); format: cell-based; settings: BHK cells expressing human GLP-1 receptor
[2] = test system: Mouse monocyte/macrophage cell line, RAW 264.7; assay: Cholesterol efflux assay (3H-cholesterol, macrophage cell line); format: cell-based; settings: RAW 264.7, 4 hrs incubation, 0.1% human serum albumin, ABCA1-mediated efflux
[3] = GLP1R CRE luc 1% HSA EC50 Mean Value, 1% HSA
[4] = 0% HSA, read-out: GLP1R CRE luc 0% HSA EC50 Mean Value

Sequence of human GLP-1 receptor (P43220 24-463): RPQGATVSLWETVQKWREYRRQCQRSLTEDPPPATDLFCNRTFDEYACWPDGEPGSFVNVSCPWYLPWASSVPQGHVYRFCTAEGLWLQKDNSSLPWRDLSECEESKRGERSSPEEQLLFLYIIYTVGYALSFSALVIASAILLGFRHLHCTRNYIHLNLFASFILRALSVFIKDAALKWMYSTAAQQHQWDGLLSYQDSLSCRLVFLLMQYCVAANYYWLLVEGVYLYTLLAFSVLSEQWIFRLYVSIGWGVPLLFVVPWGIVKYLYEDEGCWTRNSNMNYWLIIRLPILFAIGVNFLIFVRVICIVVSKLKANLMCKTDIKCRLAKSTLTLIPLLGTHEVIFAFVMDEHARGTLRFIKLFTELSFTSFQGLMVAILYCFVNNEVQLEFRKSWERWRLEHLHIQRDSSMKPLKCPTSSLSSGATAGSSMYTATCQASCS

Compound | EC50 [1, 3] | 4 h Cholesterol Efflux Emax [2] | EC50 [1, 4]
CC[C@H](C)[C@H](NC(=O)[C@H](Cc1ccccc1)NC(=O)[C@H](CCC(=O)O)NC(=O)[C@H](CCCCN)NC(=O)[C@@H](NC(=O)[C@H](C)NC(=O)[C@H](CCC(=O)O)NC(=O)CNC(=O)[C@H](CCC(=O)O)NC(=O)[C@H](CC(C)C)NC(=O)[C@H](Cc1ccc(O)cc1)NC(=O)[C@H](CO)NC(=O)[C@H](CO)NC(=O)[C@@H](NC(=O)[C@H](CC(=O)O)NC(=O)[C@H](CO)NC(=O)[C@@H](NC(=O)[C@H](Cc1ccccc1)NC(=O)[C@@H](NC(=O)CNC(=O)[C@H](CCC(=O)O)NC(=O)C(C)(C)NC(=O)[C@@H](N)Cc1c[nH]cn1)[C@@H](C)O)[C@@H](C)O)C(C)C)C(C)C)C(=O)N[C@@H](C)C(=O)N[C@@H](Cc1c[nH]c2ccccc12)C(=O)N[C@@H](CC(C)C)C(=O)N[C@H](C(=O)N[C@@H](CCC(=O)O)C(=O)N[C@@H](CCCCN)C(=O)N[C@H](C(=O)N[C@@H](CCCCN)C(=O)NCC(=O)N[C@@H](Cc1ccccc1)C(=O)N[C@@H](CC(C)C)C(N)=O)C(C)C)C(C)C [Compound 115, [Aib8,Glu23,Val25,Glu34,Lys35,Val36,Lys37]-GLP-1-(7-37)-peptidyl-Glv-Phe-Leu amide] (H-H[Aib]EGTFTSDVSSYLEGEAVKEFIAWLVEKVKGFL-NH2) | 0.032 nM | 94% | 
H-HAEGTFTSDVSSYLEGQAAKEFIAWLVEKVGEFLEK-OH [Compound 128] | 0.013 nM | 112% | 0.041 nM
CC[C@H](C)[C@H](NC(=O)[C@H](Cc1ccccc1)NC(=O)[C@H](CC(C)C)NC(=O)[C@H](CCCCN)NC(=O)[C@@H](NC(=O)[C@H](C)NC(=O)[C@H](CCC(=O)O)NC(=O)CNC(=O)[C@H](CCC(=O)O)NC(=O)[C@H](CC(C)C)NC(=O)[C@H](Cc1ccc(O)cc1)NC(=O)[C@H](CO)NC(=O)[C@H](CO)NC(=O)[C@@H](NC(=O)[C@H](CC(=O)O)NC(=O)[C@H](CO)NC(=O)[C@@H](NC(=O)[C@H](Cc1ccccc1)NC(=O)[C@@H](NC(=O)CNC(=O)[C@H](CCC(=O)O)NC(=O)C(C)(C)NC(=O)[C@@H](N)Cc1c[nH]cn1)[C@@H](C)O)[C@@H](C)O)C(C)C)C(C)C)C(=O)N[C@@H](C)C(=O)N[C@@H](Cc1c[nH]c2ccccc12)C(=O)N[C@@H](CC(C)C)C(=O)N[C@H](C(=O)N[C@@H](CCC(=O)O)C(=O)N[C@@H](CCCCN)C(=O)NC(C)(C)C(=O)N[C@@H](CCCCN)C(=O)N[C@@H](CCC(=O)O)C(=O)N[C@@H](Cc1ccccc1)C(=O)N[C@@H](CC(C)C)C(N)=O)C(C)C [Compound 28, [Aib8,Glu23,Val25,Leu27,Glu34,Lys35,Aib36,Lys37]-GLP-1-(7-37)-peptidyl-Glu-Phe-Leu amide] (H-H[Aib]EGTFTSDVSSYLEGEAVKLFIAWLVEK[Aib]KEFL-NH2) | 0.104 nM | 78% | 
CC(C)C[C@H](NC(=O)[C@H](Cc1ccccc1)NC(=O)[C@H](CCC(=O)O)NC(=O)[C@H](CCCCN)NC(=O)C(C)(C)NC(=O)[C@H](CCCCN)NC(=O)[C@H](CCC(=O)O)NC(=O)[C@H](CC(C)C)NC(=O)[C@H](CC(C)C)NC(=O)[C@H](Cc1c[nH]c2ccccc12)NC(=O)[C@H](CCC(N)=O)NC(=O)[C@@H](NC(=O)[C@H](Cc1ccccc1)NC(=O)[C@H](CCC(=O)O)NC(=O)[C@H](CCCNC(=N)N)NC(=O)[C@H](C)NC(=O)[C@H](C)NC(=O)[C@H](CCCCN)NC(=O)CNC(=O)[C@H](CC(=O)O)NC(=O)[C@H](CC(C)C)NC(=O)[C@H](Cc1ccc(O)cc1)NC(=O)[C@H](CCCCN)NC(=O)[C@H](CO)NC(=O)[C@H](Cc1ccc(O)cc1)NC(=O)[C@H](CC(=O)O)NC(=O)[C@H](CO)NC(=O)[C@@H](NC(=O)[C@H](Cc1ccccc1)NC(=O)[C@@H](NC(=O)CNC(=O)[C@H](CCC(N)=O)NC(=O)C(C)(C)NC(=O)[C@@H](N)Cc1c[nH]cn1)[C@@H](C)O)[C@@H](C)O)C(C)C)C(N)=O [Compound 24] (H-H[Aib]QGTFTSDYSKYLDGKAAREFVQWLLEK[Aib]KEFL-NH2) | 0.908 nM | 82% | 1.63 nM
CC[C@H](C)[C@H](NC(=O)[C@H](Cc1ccccc1)NC(=O)[C@H](CCC(=O)O)NC(=O)[C@H](CCCCN)NC(=O)[C@@H](NC(=O)[C@H](C)NC(=O)[C@H](CCC(=O)O)NC(=O)CNC(=O)[C@H](CCC(=O)O)NC(=O)[C@H](CC(C)C)NC(=O)[C@H](Cc1ccc(O)cc1)NC(=O)[C@H](CO)NC(=O)[C@H](CO)NC(=O)[C@@H](NC(=O)[C@H](CC(=O)O)NC(=O)[C@H](CO)NC(=O)[C@@H](NC(=O)[C@H](Cc1ccccc1)NC(=O)[C@@H](NC(=O)CNC(=O)[C@H](CCC(=O)O)NC(=O)C(C)(C)NC(=O)[C@@H](N)Cc1c[nH]cn1)[C@@H](C)O)[C@@H](C)O)C(C)C)C(C)C)C(=O)N[C@@H](C)C(=O)N[C@@H](Cc1c[nH]c2ccccc12)C(=O)N[C@@H](CC(C)C)C(=O)N[C@H](C(=O)N[C@@H](CCC(=O)O)C(=O)N[C@@H](CCCCN)C(=O)N[C@@H](Cc1ccccc1)C(=O)N[C@@H](CCCCN)C(=O)N[C@@H](CCC(=O)O)C(=O)N[C@@H](C)C(=O)N[C@@H](Cc1ccccc1)C(N)=O)C(C)C [Compound 46, [Aib8,Glu23,Val25,Glu34,Lys35,Phe36,Lys37]-GLP-1-(7-37)-peptidyl-Glu-Ala-Phe amide] (H-H[Aib]EGTFTSDVSSYLEGEAVKEFIAWLVEKFKEAF-NH2) |  | 98% | 0.372 nM
H-HAEGTFTSDVSSYLEGQAAKEFIAWLVEKVKEFLEK-OH [Compound 124, [Glu34,Lys35,Val36,Lys37]-GLP-1-(7-37)-peptidyl-Glu-Phe-Leu-Glu-Lys] | 0.011 nM | 146% | 0.03 nM
CC[C@H](C)[C@H](NC(=O)[C@H](Cc1ccccc1)NC(=O)[C@H](CCC(=O)O)NC(=O)[C@H](CCCCN)NC(=O)[C@@H](NC(=O)[C@H](C)NC(=O)[C@H](CCC(N)=O)NC(=O)CNC(=O)[C@H](CCC(=O)O)NC(=O)[C@H](CC(C)C)NC(=O)[C@H](Cc1ccc(O)cc1)NC(=O)[C@H](CO)NC(=O)[C@H](CO)NC(=O)[C@@H](NC(=O)[C@H](CC(=O)O)NC(=O)[C@H](CO)NC(=O)[C@@H](NC(=O)[C@H](Cc1ccccc1)NC(=O)[C@@H](NC(=O)CNC(=O)[C@H](CCC(=O)O)NC(=O)C(C)(C)NC(=O)[C@@H](N)Cc1c[nH]cn1)[C@@H](C)O)[C@@H](C)O)C(C)C)C(C)C)C(=O)N[C@@H](C)C(=O)N[C@@H](Cc1c[nH]c2ccccc12)C(=O)N[C@@H](CC(C)C)C(=O)N[C@H](C(=O)N[C@@H](CC(N)=O)C(=O)N[C@@H](CCCCN)C(=O)NC(C)(C)C(=O)N[C@@H](C)C(=O)N[C@@H](CCC(=O)O)C(=O)N[C@@H](Cc1ccccc1)C(=O)N[C@@H](CC(C)C)C(N)=O)C(C)C [Compound 73] (H-H[Aib]EGTFTSDVSSYLEGQAVKEFIAWLVNK[Aib]AEFL-NH2) | 0.062 nM | 86% | 0.108 nM
CC[C@H](C)[C@H](NC(=O)[C@H](Cc1ccccc1)NC(=O)[C@H](CCC(=O)O)NC(=O)[C@H](CCCCN)NC(=O)[C@@H](NC(=O)[C@H](C)NC(=O)[C@H](CCC(=O)O)NC(=O)CNC(=O)[C@H](CCC(=O)O)NC(=O)[C@H](CC(C)C)NC(=O)[C@H](Cc1ccc(O)cc1)NC(=O)[C@H](CO)NC(=O)[C@H](CO)NC(=O)[C@@H](NC(=O)[C@H](CC(=O)O)NC(=O)[C@H](CO)NC(=O)[C@@H](NC(=O)[C@H](Cc1ccccc1)NC(=O)[C@@H](NC(=O)CNC(=O)[C@H](CCC(=O)O)NC(=O)C(C)(C)NC(=O)[C@@H](N)Cc1c[nH]cn1)[C@@H](C)O)[C@@H](C)O)C(C)C)C(C)C)C(=O)N[C@@H](C)C(=O)N[C@@H](Cc1c[nH]c2ccccc12)C(=O)N[C@@H](CC(C)C)C(=O)N[C@@H](CC(C)C)C(=O)N[C@@H](CCC(=O)O)C(=O)N[C@@H](CCCCN)C(=O)NC(C)(C)C(=O)N[C@@H](CCCCN)C(=O)N[C@@H](CCC(=O)O)C(=O)N[C@@H](Cc1ccccc1)C(=O)N[C@@H](CC(C)C)C(N)=O [Compound 84, [Aib8,Glu23,Val25,Leu33,Glu34,Lys35,Aib36,Lys37]-GLP-1-(7-37)-peptidyl-Glu-Phe-Leu amide] (H-H[Aib]EGTFTSDVSSYLEGEAVKEFIAWLLEK[Aib]KEFL-NH2) | 0.076 nM | 94% | 
H-HAEGTFTSDVSSYLEGEAVREFIAWLVHRVREFLEK-OH [Compound 139] | 0.014 nM | 104% | 0.039 nM
CC[C@H](C)[C@H](NC(=O)[C@H](Cc1ccccc1)NC(=O)[C@H](CCC(=O)O)NC(=O)[C@H](CCCNC(=N)N)NC(=O)[C@@H](NC(=O)[C@H](C)NC(=O)[C@H](CCC(=O)O)NC(=O)[C@H](CCC(=O)O)NC(=O)[C@H](CCC(=O)O)NC(=O)[C@H](CCSC)NC(=O)[C@H](CCC(N)=O)NC(=O)[C@H](CCCCN)NC(=O)[C@H](CO)NC(=O)[C@H](CC(C)C)NC(=O)[C@H](CC(=O)O)NC(=O)[C@H](CO)NC(=O)[C@@H](NC(=O)[C@H](Cc1ccccc1)NC(=O)[C@@H](NC(=O)CNC(=O)[C@H](CCC(=O)O)NC(=O)C(C)(C)NC(=O)[C@@H](N)Cc1c[nH]cn1)[C@@H](C)O)[C@@H](C)O)C(C)C)C(=O)N[C@@H](CCC(=O)O)C(=O)N[C@@H](Cc1c[nH]c2ccccc12)C(=O)N[C@@H](CC(C)C)C(=O)N[C@@H](CCCCN)C(=O)N[C@@H](CC(N)=O)C(=O)N[C@@H](CCCCN)C(=O)NC(C)(C)C(=O)N[C@@H](CC(C)C)C(=O)N[C@@H](CCC(=O)O)C(=O)N[C@@H](Cc1ccccc1)C(=O)N[C@@H](CC(C)C)C(=O)N[C@@H](CCC(=O)O)C(=O)N1CCC[C@H]1C(=O)N[C@@H](CC(C)C)C(N)=O [Compound 39, [Aib2,Glu21,Lys29,Aib30,Leu31,Glu32,Phe33,Leu34,Glu35,Leu371-Exendin-4-(1-37)-peptide amide] (H-H[Aib]EGTFTSDLSKQMEEEAVREFIEWLKNK[Aib]LEFLEPL-NH2; N-terminus assumed) | 0.013 nM | 113% | 0.032 nM
